For 25 molecules, IC50 results are on record in patent publication US8901114B2, “Oxathiazine derivatives substituted with carbocycles or heterocycles, method for producing same, drugs containing said compounds, and use thereof” (Sanofi, priority 2011, dated 2014).

Chain of human 11β-HSD1 microsome fraction (P28845 whole entry): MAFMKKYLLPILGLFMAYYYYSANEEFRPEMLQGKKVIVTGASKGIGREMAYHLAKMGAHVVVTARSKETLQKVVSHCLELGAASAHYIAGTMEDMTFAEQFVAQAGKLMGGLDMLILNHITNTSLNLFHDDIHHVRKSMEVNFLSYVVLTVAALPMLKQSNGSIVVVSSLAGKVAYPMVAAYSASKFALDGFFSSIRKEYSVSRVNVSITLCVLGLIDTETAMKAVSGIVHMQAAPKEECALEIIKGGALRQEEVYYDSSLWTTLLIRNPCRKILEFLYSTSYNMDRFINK

The target of this experiment is human 11β-HSD1 microsome fraction (Homo sapiens, UniProt P28845). Kind of experiment: Enzymatic 11beta-HSD1 test (SPA-based detection). The note with it: human 11β-HSD1 microsomes, [1,2-3H]-cortisone, NADPH, 37° C., 1 hour; read-out: IC50 (nM), Biological activity in nanomolar. It is filed as biochemical. As for the experimental part:
Enzymatic 11beta-HSD1 test:
First of all, 20 μl of the human 11β-HSD1 microsome fraction (0.2 μg of protein), prepared in 50 mM HEPES, 0.1% BSA (w/v), were applied to a plate with 384 wells. The test compounds (0.09 μl) were applied to the assay plate in 100% DMSO. The reaction was started by addition of 20 μl of [1,2-^3H]-cortisone (0.1 μCi/[…]) in assay buffer comprising 25 mM HEPES, 100 mM KCl, 5 mM NaCl, 2 mM MgCl2 and 0.25 mM NADPH. The plate was agitated at 37° C. for 1 hour. At the same time, a stop solution comprising 20 mg/ml SPA-PVT beads, 1.6 mg/ml monoclonal cortisol antibody and 0.01 mM SSR110887 (inhibitor from the Biovitrium patent) in 50 mM HEPES, 1 M NaCl and 1 M KCl was stirred at room temperature. To stop the reaction, 25 μl of the stop solution were added to each well. The plate was agitated gently at room temperature for 1 further hour and then centrifuged at 500 gav for […], in order that the SPA beads could settle out. […] The comparative compound was glycyrrhetinic acid.
Protein and radioactive substrate were dispensed with a Biomek FX unit (Beckman Coulter) for handling liquids. The test compounds were added with a Cybi-Well equipped with a 90 nl pin tool (CyBio).
Lit.: Solly S, Mundt S S, Zokian H J, Juy-Fang Ding G, Hermanowski-Vosatka A, Strulovici B and Zheng W. High-throughput screening of 11β-Hydroxysteroid dehydrogenase type 1 in scintillation proximity format.
Usually IC50 stands for the concentration that gives 50% inhibition. `CC1(C)[C@@H]2CC[C@@]1(C)[C@H](NC1=NS(=O)(=O)C3CCCCC3O1)C2` (single isomer, unassigned) [Example 9]: the IC50 was determined as 5 nM.
The same measure for `CC1(C)[C@@H]2CC[C@@]1(C)[C@H](NC1=NS(=O)(=O)C3CCCCC3O1)C2` (single isomer, unassigned) [Example 14]: 236 nM; for `CC12CCC(NC3=NS(=O)(=O)[C@H]4CCCC[C@H]4O3)(CC1)CC2` [Example 5, ((4aR,8aS)-1,1-Dioxo-4a,5,6,7,8,8a-hexahydro-1H-1lambda6-benzo[1,4,3]oxathiazin-3-yl)-(4-methyl-bicyclo[2.2.2]oct-1-yl)-amine]: 8 nM; for `CC12CCC(NC3=NS(=O)(=O)[C@@H]4CCCC[C@@H]4O3)(CC1)CC2` [Example 13, ((4aS,8aR)-1,1-Dioxo-4a,5,6,7,8,8a-hexahydro-1H-1lambda6-benzo[1,4,3]oxathiazin-3-yl)-(4-methyl-bicyclo[2.2.2]oct-1-yl)-amine]: 5 nM.
`CC1CC(NC2=NS(=O)(=O)C3CCCCC3O2)CC(C)(C)C1` (stereo not shown) [Example 23, (1,1-Dioxo-4a,5,6,7,8,8a-hexahydro-1H-1lambda6-benzo[1,4,3]oxathiazin-3-yl)-(3,3,5-trimethyl-cyclohexyl)-amine]: the concentration for half-maximal inhibition (IC50) was 20 nM.
The same measure for `CC(C)C(NC1=NS(=O)(=O)C2CCCCC2O1)c1cccs1` (stereo not shown) [Example 25, (1,1-Dioxo-4a,5,6,7,8,8a-hexahydro-1H-1lambda6-benzo[1,4,3]oxathiazin-3-yl)-(2-methyl-1-thiophen-2-yl-propyl)-amine]: 121 nM; for `C[C@@H](NC1=NS(=O)(=O)C2CCCCC2O1)C1CCCCC1` (stereo partly drawn) [Example 29, ((R)-1-Cyclohexyl-ethyl)-(1,1-dioxo-4a,5,6,7,8,8a-hexahydro-1H-1lambda6-benzo[1,4,3]oxathiazin-3-yl)-amine]: 275 nM; for `CC1(C)[C@@H]2CC[C@@]1(C)[C@@H](NC1=NS(=O)(=O)C3CCCCC3O1)C2` (stereo partly drawn) [Example 36, (1,1-Dioxo-4a,5,6,7,8,8a-hexahydro-1H-1lambda6-benzo[1,4,3]oxathiazin-3-yl)-((1R,2S,4R)-1,7,7-trimethyl-bicyclo[2.2.1]hept-2-yl)-amine]: 59 nM.
Regarding `CC1(C)[C@@H]2CC[C@@]1(C)[C@H](O)[C@H]2NC1=NS(=O)(=O)C2CCCCC2O1` (stereo partly drawn) [Example 38, (1R,2S,3S,4S)-3-(1,1-Dioxo-4a,5,6,7,8,8a-hexahydro-1H-1lambda6-benzo[1,4,3]oxathiazin-3-ylamino)-1,7,7-trimethyl-bicyclo[2.2.1]heptan-2-ol], the concentration for half-maximal inhibition (IC50) stood at 570 nM.
Consider `O=S1(=O)N=C(NC(C2CC2)C2CC2)OC2CCCCC21` (stereo not shown) [Example 39, Dicyclopropylmethyl-(1,1-dioxo-4a,5,6,7,8,8a-hexahydro-1H-1lambda6-benzo[1,4,3]oxathiazin-3-yl)-amine], for which the IC50 worked out at 440 nM.
The same measure for `CC1(C)C2CCC1C(NC1=NS(=O)(=O)C3CCCCC3O1)C2O` (stereo not shown) [Example 41, 3-(1,1-Dioxo-4a,5,6,7,8,8a-hexahydro-1H-1lambda6-benzo[1,4,3]oxathiazin-3-ylamino)-7,7-dimethyl-bicyclo[2.2.1]heptan-2-ol]: 497 nM.
Regarding `O=S1(=O)N=C(NCC2CCCCO2)OC2CCCCC21` (stereo not shown) [Example 47, (1,1-Dioxo-4a,5,6,7,8,8a-hexahydro-1H-1lambda6-benzo[1,4,3]oxathiazin-3-yl)-(tetrahydro-pyran-2-ylmethyl)-amine], the IC50 was determined as 165 nM.
The same measure for `O=S1(=O)N=C(NC2CCSc3ccccc32)OC2CCCCC21` (stereo not shown) [Example 48, (1,1-Dioxo-4a,5,6,7,8,8a-hexahydro-1H-1lambda6-benzo[1,4,3]oxathiazin-3-yl)-thiochroman-4-yl-amine]: 93 nM; for `CC(C)[C@]12CC(NC3=NS(=O)(=O)C4CCCCC4O3)[C@H](C)[C@H]1C2` (stereo partly drawn) [Example 53, (1,1-Dioxo-4a,5,6,7,8,8a-hexahydro-1H-1lambda6-benzo[1,4,3]oxathiazin-3-yl)-((1S,4R,5R)-1-isopropyl-4-methyl-bicyclo[3.1.0]hex-3-yl)-amine]: 54 nM.
Turning to `O=S1(=O)N=C(NC2CC[C@H]3CC[C@@H]2C3)OC2CCCCC21` (stereo partly drawn) [Example 54, (1R,5R)-Bicyclo[3.2.1]oct-2-yl-(1,1-dioxo-4a,5,6,7,8,8a-hexahydro-1H-1lambda6-benzo[1,4,3]oxathiazin-3-yl)-amine], the IC50 came to 29 nM.
Next, `CC(C)CC(CC(C)C)NC1=NS(=O)(=O)C2CCCCC2O1` (stereo not shown) [Example 55, (1,1-Dioxo-4a,5,6,7,8,8a-hexahydro-1H-1lambda6-benzo[1,4,3]oxathiazin-3-yl)-(1-isobutyl-3-methyl-butyl)-amine]: 670 nM; `C[C@@H]1[C@@H](NC2=NS(=O)(=O)C3CCCCC3O2)C[C@H]2C[C@@H]1C2(C)C` (stereo partly drawn) [Example 56, (1,1-Dioxo-4a,5,6,7,8,8a-hexahydro-1H-1lambda6-benzo[1,4,3]oxathiazin-3-yl)-((1S,2S,3S,5R)-2,6,6-trimethyl-bicyclo[3.1.1]hept-3-yl)-amine]: 16 nM.
On to `O=S1(=O)N=C(N[C@@H]2CCCC[C@H]2CO)O[C@H]2CCCC[C@H]21` [Example 59, [(1R,2R)-2-((4aS,8aR)-1,1-Dioxo-4a,5,6,7,8,8a-hexahydro-1H-1lambda6-benzo[1,4,3]oxathiazin-3-ylamino)-cyclohexyl]-methanol], for which the IC50 turned out to be 658 nM.
For `O=S1(=O)N=C(N[C@@H]2C[C@H]3CC[C@@H]2C3)OC2CCCCC21` (stereo partly drawn) [Example 62, (1R,2R,4S)-Bicyclo[2.2.1]hept-2-yl-((5S,6R)-1,1-dioxo-4a,5,6,7,8,8a-hexahydro-1H-1lambda6-benzo[1,4,3]oxathiazin-3-yl)-amine], the IC50 is 43 nM.
With `CC12CCC(NC3=NS(=O)(=O)C4CCCC4O3)(CC1)CC2` (stereo not shown) [Example 64, (1,1-Dioxo-1,4a,5,6,7,7a-hexahydro-1lambda6-cyclopenta[1,4,3]oxathiazin-3-yl)-(4-methyl-bicyclo[2.2.2]oct-1-yl)-amine], the IC50 is 38 nM.
On to `O=S1(=O)N=C(NN2CC3CCCC3C2)OC2CCCCC21` (stereo not shown) [Example 65, (1,1-Dioxo-4a,5,6,7,8,8a-hexahydro-1H-1lambda6-benzo[1,4,3]oxathiazin-3-yl)-(hexahydro-cyclopenta[c]pyrrol-2-yl)-amine], for which the half-inhibitory concentration (IC50) came out at 308 nM.
With `O=S1(=O)N=C(NN2CCCCCC2)OC2CCCCC21` (stereo not shown) [Example 66, Azepan-1-yl-(1,1-dioxo-4a,5,6,7,8,8a-hexahydro-1H-1lambda6-benzo[1,4,3]oxathiazin-3-yl)-amine], the half-maximal inhibitory concentration (IC50) came to 148 nM.
For `O=S1(=O)N=C(NC23CCC(CC2)CC3)OC2CCCC21` (stereo not shown) [Example 72, Bicyclo[2.2.2]oct-1-yl-(1,1-dioxo-1,4a,5,6,7,7a-hexahydro-1lambda6-cyclopenta[1,4,3]oxathiazin-3-yl)-amine], the half-inhibitory concentration (IC50) came to 74 nM.
Next, `O=S1(=O)N=C(N[C@H]2CC[C@H](O)CC2)OC2CCCCC21` (stereo partly shown) [Example 81, 4-(1,1-Dioxo-4a,5,6,7,8,8a-hexahydro-1H-1lambda6-benzo[1,4,3]oxathiazin-3-ylamino)-cyclohexanol]: 355 nM; `CC12CCCCC1S(=O)(=O)N=C(NC1CCCCC1)O2` (stereo not shown) [Example 89, Cyclohexyl-(4a-methyl-1,1-dioxo-4a,5,6,7,8,8a-hexahydro-1H-1lambda6-benzo[1,4,3]oxathiazin-3-yl)-amine]: 49 nM.
